The term melting point denotes the temperature of the solid-liquid transition. For orientation: Ki means a measure of affinity in units of concentration, obtained from inhibition or displacement.

Where a name gives a salt, the structure may show the parent alone.

Consider 17 compounds from US8697700B2, “Piperazinone-substituted tetrahydro-carboline MCH-1 antagonists, methods of making, and uses thereof” (Albany Molecular Research, Inc., priority 2010, dated 2014).

Test system in one data set: not given
Assay: not given
Conditions: not given
In turn, `CC1Cc2c(c3ccc(N4CCN(CCc5ccc(F)cc5)CC4=O)cc3n2C)CN1.Cl` (centres unmarked) [Example 12, 1-(3,5-Dimethyl-2,3,4,5-tetrahydro-1H-pyrido[4,3-b]indol-7-yl)-4-(4-fluorophenethyl)piperazin-2-one hydrochloride] showed a melting point of 280 to 285 °C.
Take `CC1Cc2c(c3ccc(N4CCN(CCc5ccc(Cl)cc5)CC4=O)cc3n2C)CN1.Cl` (centres unmarked) [Example 13, 4-(4-Chlorophenethyl)-1-(3,5-dimethyl-2,3,4,5-tetrahydro-1H-pyrido[4,3-b]indol-7-yl)piperazin-2-one hydrochloride]: the melting point fell in the range of 294 to 300 °C.
The compound `CC1Cc2c(c3ccc(N4CCN(CCc5ccc(F)cc5)CC4=O)cc3n2C)CN1.Cl` (single isomer, unassigned; enantiomer a) [Example 15, 1-(3,5-Dimethyl-2,3,4,5-tetrahydro-1H-pyrido[4,3-b]indol-7-yl)-4-(4-fluorophenethyl)piperazin-2-one hydrochloride (Enantiomer A)] had a melting point of 295 to 300 °C.

The target of another data set is T1, human MCH-1 receptor (Homo sapiens, UniProt Q99705).
T1 construct: purchased Euroscreen Batch 1138
T1 sequence (Q99705 whole entry): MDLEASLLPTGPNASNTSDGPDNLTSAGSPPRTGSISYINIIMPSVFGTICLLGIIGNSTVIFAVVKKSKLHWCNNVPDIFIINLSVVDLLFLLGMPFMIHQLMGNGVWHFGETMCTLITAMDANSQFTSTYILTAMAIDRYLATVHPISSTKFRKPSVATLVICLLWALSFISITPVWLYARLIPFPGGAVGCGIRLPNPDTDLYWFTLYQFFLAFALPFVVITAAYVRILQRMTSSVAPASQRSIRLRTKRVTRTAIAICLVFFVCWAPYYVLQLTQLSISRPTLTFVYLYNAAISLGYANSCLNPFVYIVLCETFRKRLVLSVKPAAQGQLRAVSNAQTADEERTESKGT
Put plainly: Binding assay for human MCH-1 receptor (radioligand displacement). Particulars: membranes from CHO-K1 cells expressing human MCH-1 receptor; 1.4 nM [3H]-labeled compound; 60 min at 25° C.; Ki from Cheng Prusoff equation; read-out: MCH1 Ki. The procedure:
Evaluation of the affinity of compounds for the human MCH-1 receptor was accomplished using 4-(3,4,5-tritritiumbenzyloxy)-1-(1-(2-(pyrrolidin-1-yl)ethyl)-1H-indazol-5-yl)pyridin-2(1H)-one and membranes prepared from stable CHO-K1 cells expressing the human MCH-1 receptor obtained from Euroscreen (Batch 1138). Cell membrane homogenates (8.92 μg protein) were incubated for 60 min at 25° C. with 1.4 nM of the [^3H]-labeled compound in the absence or presence of the test compound in 50 mM Tris-HCl buffer, pH 7.4. Nonspecific binding was determined in the presence of 50 μM 1-(5-(4-cyanophenyl)bicyclo[3.1.0]hexan-2-yl)-3-(4-fluoro-3-(trifluoromethyl)phenyl)-1-(3-(4-methylpiperazin-1-yl)propyl)urea. Following incubation, the samples were filtered rapidly under vacuum through Skatron 11731 filters, pre-soaked in 0.5% polyethylenimine, and washed with ice-cold 50 mM Tris-HCl buffer, pH 7.4, (wash setting 9,9,0) using a Skatron cell harvester. The filters were counted for radioactivity in a liquid scintillation counter (Tri-Carb 2100TR, Packard) using a scintillation cocktail (Ultima Gold MV, Perkin Elmer).
The results are expressed as a percent inhibition of the control radioligand specific binding. The IC50 value (concentration causing a half-maximal inhibition of control specific binding) and Hill coefficient (nH) were determined by non-linear regression analysis of the competition curve using Hill equation curve fitting. The inhibition constant (Ki) was calculated from the Cheng Prusoff equation: (Ki=IC50/(1+(L/KD)), where L=concentration of radioligand in the assay, and KD=affinity of the radioligand for the receptor.
Background: Displacement assays read how much labelled ligand stays bound in the presence of the test substance.
Take `O=C1CN(CCc2ccccc2)CCN1c1ccc2c3c([nH]c2c1)CCNC3` [Example 9, 4-Phenethyl-1-(2,3,4,5-tetrahydro-1H-pyrido[4,3-b]indol-7-yl)piperazin-2-one dihydrochloride]: the inhibition constant Ki was found to be 17 nM.
On to `Cn1c2c(c3ccc(N4CCN(c5ccc(C(F)(F)F)cn5)CC4=O)cc31)CNCC2` [Example 5, 1-(5-Methyl-2,3,4,5-tetrahydro-1H-pyrido[4,3-b]indol-7-yl)-4-(5-(trifluoromethyl)pyridin-2-yl)piperazin-2-one dihydrochloride], for which the inhibition constant (Ki) is 534 nM.
The same measure, in the same setting: in the case of `CC(=O)N1CCc2c(c3ccc(N4CCN(CCc5ccccc5)CC4=O)cc3n2C)C1` [Example 10, 1-(2-Acetyl-5-methyl-2,3,4,5-tetrahydro-1H-pyrido[4,3-b]indol-7-yl)-4-phenethylpiperazin-2-one] it was 57 nM.
Turning to `CN1CCc2c(n(C)c3cc(N4CCN(CCc5ccccc5)CC4=O)ccc23)C1` [Example 4, 1-(2,9-Dimethyl-2,3,4,9-tetrahydro-1H-pyrido[3,4-b]indol-7-yl)-4-phenethylpiperazin-2-one dihydrochloride], the Ki came to 21 nM.
In the case of `Cn1c2c(c3ccc(N4CCN(CCc5ccccc5)CC4=O)cc31)CCNC2` [Example 2, 1-(9-Methyl-2,3,4,9-tetrahydro-1H-pyrido[3,4-b]indol-7-yl)-4-phenethylpiperazin-2-one hydrochloride], the Ki came to 26 nM.
Regarding `CN1CCc2c(c3ccc(N4CCN(CCc5ccccc5)CC4=O)cc3n2C)C1` [Example 7, 1-(2,5-Dimethyl-2,3,4,5-tetrahydro-1H-pyrido[4,3-b]indol-7-yl)-4-phenethylpiperazin-2-one hydrochloride], the Ki is 12 nM.
`CC(=O)N1Cc2c(n(C)c3cc(N4CCN(CCc5ccc(Cl)cc5)CC4=O)ccc23)CC1C` (single isomer, unassigned; enantiomer a) [Example 18, 1-(2-Acetyl-3,5-dimethyl-2,3,4,5-tetrahydro-1H-pyrido[4,3-b]indol-7-yl)-4-(4-chlorophenethyl)piperazin-2-one (Enantiomer A)]: the Ki worked out at 49 nM.
Regarding `Cn1c2c(c3ccc(N4CCN(CCc5ccc(Cl)cc5)CC4=O)cc31)CNCC2` [Example 14, 4-(4-Chlorophenethyl)-1-(5-methyl-2,3,4,5-tetrahydro-1H-pyrido[4,3-b]indol-7-yl)piperazin-2-one dihydrochloride], the Ki was determined as 5.8 nM.
Take `CC1Cc2c(c3ccc(N4CCN(CCc5ccc(Cl)cc5)CC4=O)cc3n2C)CN1` (single isomer, unassigned; enantiomer a) [Example 17, 4-(4-Chlorophenethyl)-1-(3,5-dimethyl-2,3,4,5-tetrahydro-1H-pyrido[4,3-b]indol-7-yl)piperazin-2-one hydrochloride (Enantiomer A)]: the Ki was 7.6 nM.
On the same count and under the same terms, to `Cn1c2c(c3ccc(N4CCN(CCc5ccc(F)cc5)CC4=O)cc31)C(C)(C)NCC2` [Example 16, 4-(4-Fluorophenethyl)-1-(1,1,5-trimethyl-2,3,4,5-tetrahydro-1H-pyrido[4,3-b]indol-7-yl)piperazin-2-one dihydrochloride] belongs 17 nM.
`Cn1c2c(c3ccc(N4CCN(CCc5ccccn5)CC4=O)cc31)CCNC2` [Example 3, 1-(9-Methyl-2,3,4,9-tetrahydro-1H-pyrido[3,4-b]indol-7-yl)-4-(2-(pyridin-2-yl)ethyl)piperazin-2-one dihydrochloride]: the Ki stood at 43 nM.
Same read-out and setting: to `Cn1c2c(c3ccc(N4CCN(CCc5ccccn5)CC4=O)cc31)CNCC2` [Example 8, 1-(5-Methyl-2,3,4,5-tetrahydro-1H-pyrido[4,3-b]indol-7-yl)-4-(2-(pyridin-2-yl)ethyl)piperazin-2-one dihydrochloride] belongs 123 nM.
Consider `Cn1c2c(c3ccc(N4CCN(CCc5ccccc5)CC4=O)cc31)CNCC2` [Example 6, 1-(5-Methyl-2,3,4,5-tetrahydro-1H-pyrido[4,3-b]indol-7-yl)-4-phenethylpiperazin-2-one dihydrochloride], for which the inhibition constant Ki was 11 nM.
Turning to `Cn1c2c(c3ccc(N4CCN(CCc5ccc(F)cc5)CC4=O)cc31)CNCC2` [Example 11, 4-(4-Fluorophenethyl)-1-(5-methyl-2,3,4,5-tetrahydro-1H-pyrido[4,3-b]indol-7-yl)piperazin-2-one dihydrochloride], the Ki was 7 nM.
Regarding `CC1Cc2c(c3ccc(N4CCN(CCc5ccc(F)cc5)CC4=O)cc3n2C)CN1.Cl` (centres unmarked) [Example 12, 1-(3,5-Dimethyl-2,3,4,5-tetrahydro-1H-pyrido[4,3-b]indol-7-yl)-4-(4-fluorophenethyl)piperazin-2-one hydrochloride], the inhibition constant Ki stood at 9.7 nM.
`CC1Cc2c(c3ccc(N4CCN(CCc5ccc(Cl)cc5)CC4=O)cc3n2C)CN1.Cl` (centres unmarked) [Example 13, 4-(4-Chlorophenethyl)-1-(3,5-dimethyl-2,3,4,5-tetrahydro-1H-pyrido[4,3-b]indol-7-yl)piperazin-2-one hydrochloride]: the inhibition constant (Ki) was determined as 5.3 nM.
With `CC1Cc2c(c3ccc(N4CCN(CCc5ccc(F)cc5)CC4=O)cc3n2C)CN1.Cl` (single isomer, unassigned; enantiomer a) [Example 15, 1-(3,5-Dimethyl-2,3,4,5-tetrahydro-1H-pyrido[4,3-b]indol-7-yl)-4-(4-fluorophenethyl)piperazin-2-one hydrochloride (Enantiomer A)], the inhibition constant Ki was determined as 11 nM.
